The subject of test [1] is A549 xenografts. Put plainly: A549 xenograft tumor growth in nude mice. The class given is in vivo. The note with it: NMRI female nude mice, 3 mg/kg twice a week for 49 days, p<0.05. The procedure: Relative tumor volumes of A549 xenografts in NMRI female nude mice after treatment with compound 3 mg/kg twice a week for 49 days. Error bars represent median±SEM, n=10 mice at each time point and analyzed by one-tailed T-TEST in Prism for *p<0.05

The subject of test [2] is c-Myc. Put plainly: c-Myc immunofluorescence assay. The note with it: A549 cells, 24 hours treatment, anti-c-Myc immunofluorescence. The class given is cell-based, human. The essentials: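 A549 cells grown 48 h, exposed 24 h to rising compound concentrations, then fixed, permeabilised and stained for c-Myc plus DAPI. Nuclear-segmented c-Myc fluorescence quantified by high-content imaging at 20×; EC50 from logistic dose–response fits.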

Test [3] relates to A549 xenografts. Description: A549 xenograft model in nude mice. The following applies: 3 mg/kg i.p. twice a week for 49 days, FIG. 5. The class given is in vivo, NMRI nude female mice. The procedure: NMRI nude female mice of 6-8 weeks of age were acclimated after shipping for >4 days. A549 cells, 5×10^6 in 100 ul Matrigel:PBS (50:50), were subcutaneously injected into flanks of mice. When the tumor size reached 80 to 200 mm^3, mice were grouped with similar average tumor size in each group, 10 animals per group. Compounds were dissolved in 10% DMSO, 10% Solutol, 80% water. Compounds were given i.p. for 49 days at 3 mg/kg twice a week. Caliper measurement of tumor size was done twice a week.
Error bars represent median±SEM, n=10 mice at each time point and analyzed by one-tailed T-TEST in Prism for *p<0.05.

The record followed here is patent publication US12404283B2, “c-MYC mRNA translation modulators and uses thereof in the treatment of cancer” (Anima Biotech Inc., priority 2022, dated 2025).

As to `NC1(c2ccc(-c3cn4c(n3)sc3cc(C(=O)NCCCN5CCCCC5)ccc34)cc2)CC1` [compound 332, 2-(4-(1-aminocyclopropyl)phenyl)-N-(3-(piperidin-1-yl)propyl)benzo[d]imidazo [2,1-b]thiazole-7-carboxamide], the “c-Myc-dependent tumor growth (relative tumor volumes)” value in test [1] is recorded as “inhibited c-Myc-dependent tumor growth in-vivo”. The “Myc Efficacy (−LogEC50)” value in test [2] is “+++ (+++ ≥6)”. For the same compound, the “c-Myc-dependent tumor growth (relative tumor volume)” value in test [3] is “inhibited c-Myc-dependent tumor growth in-vivo”.
